Tests used:
Leukemia L-1210 = assay: Effect on life span of mice implanted with leukemic cells of L-1210 (Method B); format: in vivo, mice (BDF1, male); conditions: for increase in the average life span: five consecutive days; for 60-day survivors (mice survived/mice used) / ILS: 5 days
Procedure: (B) Effect on the life span of mice implanted with leukemic cells of L-1210
10^5 leukemic cells of L-1210 were inoculated intraperitoneally into a group of four male mice (BDF1 mice, body weight: 19-23 g). A test compound was dissolved in a physiological saline solution and administered intraperitoneally to the mice. The administration of the test compound was began 24 hours after the inoculation of the leukemic cells and performed once a day for 5 days. The survival days of the treated mice were observed.

[1] = test system: Ehrlich ascites carcinoma; assay: Preventive effect against the growth of Ehrlich ascites carcinoma (Method A); format: in vivo, mice (ICR, female); conditions: for inhibition in vivo at 1.56 mg/kg: 1.56 mg/kg/day i.p.; for inhibition in vivo at 25 mg/kg: 25 mg/kg/day i.p.; for minimal effective dose: 168 h, min dose, 100% inhibition, read-out: MED (Minimum Effective Dose); for therapeutic index (M.T.D./M.E.D.), times greater than that of GANU: Ehrlich ascites tumor, relative to GANU; for inhibition in vivo at 0.19 mg/kg: 0.19 mg/kg/day i.p.; for inhibition in vivo at 0.39 mg/kg: 0.39 mg/kg/day i.p.; for inhibition in vivo at 0.78 mg/kg: 0.78 mg/kg/day i.p.
Procedure: (§1) (A) Preventive effect against the growth of Ehrlich ascites tumor
(§2) 10^6 tumor cells of Ehrlich ascites carcinoma were inoculated intraperitoneally into a group of five femal mice (ICR mice, body weight: 19-23 g). A test compound was dissolved in a physiological saline solution and administered intraperitoneally to the mice. The administration of the test compound was began 24 hours after the inoculation of the tumor cells and performed once a day for 5 days. The volume of ascites in the treated mice were measured after 7 days of the experiment.

[2] = as above; format: in vivo, mice (ICR, female); conditions: mouse, in vivo, ip; max dose, 100% inhibition without death; doses of the table in mg/kg/day; read-out: MTD (Maximum Tolerated Dose)
Procedure: as §1, §2

[3] = Mus musculus, Ehrlich, ip, 120 h, 5 days, read-out: Inhibition ratio
[4] = Mus musculus, Ehrlich, ip, 120 h, 3.12 mg/kg/day i.p., 5 days, read-out: Inhibition ratio
[5] = Mus musculus, Ehrlich, ip, 120 h, 6.25 mg/kg/day i.p., 5 days, read-out: Inhibition ratio
[6] = Mus musculus, Ehrlich, ip, 120 h, 100 mg/kg/day i.p., 5 days, read-out: Inhibition ratio
[7] = Mus musculus, Ehrlich, ip, 120 h, 400 mg/kg/day i.p., 5 days, read-out: Inhibition ratio
[8] = Mus musculus, Ehrlich, ip, doses of the table in mg/kg/day
[9] = Mus musculus, Ehrlich, ip, 120 h, 12.5 mg/kg/day i.p., 5 days, read-out: Inhibition ratio
[10] = Mus musculus, Ehrlich, ip, 120 h, 50 mg/kg/day i.p., 5 days, read-out: Inhibition ratio

## O=NN(CCCl)C(=O)N(CC1CCCO1)C1O[C@H](CO)[C@H](O)[C@H](O)[C@H]1O (stereo partly drawn) [1-(2-chloroethyl)-1-nitroso-3-tetrahydrofurfuryl-3-(D-galactopyranosyl)urea]
Leukemia L-1210; 1.7 mg/kg i.p.
  increase in the average life span: about 30%

## CC(c1ccccc1)N(C(=O)N(CCCl)N=O)C1O[C@H](CO)[C@@H](O[C@H]2O[C@H](CO)[C@@H](O)[C@H](O)[C@H]2O)[C@H](O)[C@H]1O (stereo partly drawn) [Compound 5, 1-(2-chloroethyl)-1-nitroso-3-(α-methylbenzyl)-3-[O-α-D-glucopyranosyl-(1→4)-D-glucopyranosyl]urea]
[1]; 800 mg/kg/day i.p., 5 days
  Toxic (number of mice died/number of mice used): 4/5
[1]
  Therapeutic index (MTD/MED): 128
[1]; [3]
  inhibition in vivo at 1.56 mg/kg: 6.2%
  inhibition in vivo at 25 mg/kg: 100%
[1]; [4]
  inhibition in vivo at 3.12 mg/kg: 100%
[1]; [5]
  inhibition in vivo at 6.25 mg/kg: 100%
[1]; [6]
  inhibition in vivo at 100 mg/kg: 100%
[1]; [7]
  inhibition in vivo at 400 mg/kg: 100%
[1]; [8]
  minimal effective dose: 3.12 mg/kg/day
[2]
  MTD at 168 h: 400 mg/kg/day

## O=NN(CCCl)C(=O)N(Cc1cccs1)C1O[C@H](CO)[C@@H](O[C@H]2O[C@H](CO)[C@@H](O)[C@H](O)[C@H]2O)[C@H](O)[C@H]1O (stereo partly shown)
[1]
  therapeutic index (M.T.D./M.E.D.), times greater than that of GANU: about 8 times

## O=NN(CCCl)C(=O)N(CC1CO1)C1OC[C@H](O)[C@H](O)[C@H]1O (stereo partly drawn) [Compound 12, 1-(2-chloroethyl)-1-nitroso-3-(oxiran-2-yl-methyl)-3-(L-arabinopyranosyl)urea]
[1]; 100 mg/kg/day i.p., 5 days
  Toxic (number of mice died/number of mice used): 5/5
[1]
  Therapeutic index (MTD/MED): 128
[1]; [3]
  inhibition in vivo at 0.19 mg/kg: 20.9%
  inhibition in vivo at 0.39 mg/kg: 100%
  inhibition in vivo at 0.78 mg/kg: 100%
[1]; [4]
  inhibition in vivo at 3.12 mg/kg: 100%
[1]; [9]
  inhibition in vivo at 12.5 mg/kg: 100%
[1]; [10]
  inhibition in vivo at 50 mg/kg: 100%
[1]; [8]
  minimal effective dose: 0.39 mg/kg/day
[2]
  MTD at 168 h: 50 mg/kg/day

## O=NN(CCCl)C(=O)N(CC1CC1)C1OC[C@H](O)[C@H](O)[C@H]1O (stereo partly drawn) [1-(2-chloroethyl)-1-nitroso-3-cyclopropylmethyl-3-(L-arabinopyranosyl)urea]
Leukemia L-1210; 1.1 mg/kg i.p.
  increase in the average life span: about 30%

## O=NN(CCCl)C(=O)N(Cc1ccccc1)C1O[C@H](CO)[C@@H](O[C@H]2O[C@H](CO)[C@@H](O)[C@H](O)[C@H]2O)[C@H](O)[C@H]1O (stereo partly shown)
[1]
  therapeutic index (M.T.D./M.E.D.), times greater than that of GANU: about 8 times

## O=NN(CCCl)C(=O)N(Cc1ccccc1)C1OC[C@H](O)[C@H](O)[C@H]1O (stereo partly drawn) [Compound 11, 1-(2-chloroethyl)-1-nitroso-3-benzyl-3-(L-arabinopyranosyl)urea]
[1]; 200 mg/kg/day i.p., 5 days
  Toxic (number of mice died/number of mice used): 5/5
[1]
  Therapeutic index (MTD/MED): 128
[1]; [3]
  inhibition in vivo at 0.19 mg/kg: 18.4%
  inhibition in vivo at 0.39 mg/kg: 65.3%
  inhibition in vivo at 0.78 mg/kg: 100%
  inhibition in vivo at 1.56 mg/kg: 100%
  inhibition in vivo at 25 mg/kg: 100%
[1]; [5]
  inhibition in vivo at 6.25 mg/kg: 100%
[1]; [6]
  inhibition in vivo at 100 mg/kg: 100%
[1]; [8]
  minimal effective dose: 0.78 mg/kg/day
[2]
  MTD at 168 h: 100 mg/kg/day

## O=NN(CCCl)C(=O)N(CC1CCCO1)C1O[C@H](CO)[C@H](O)[C@H](O)[C@H]1O (stereo partly drawn) [Compound 9, 1-(2-chloroethyl)-1-nitroso-3-tetrahydrofurfuryl-3-(D-galactopyranosyl)urea]
Leukemia L-1210; 6.25 mg/kg/day i.p.
  60-day survivors (mice survived/mice used): 0/4
  ILS: 55.3%
Leukemia L-1210; 25 mg/kg/day i.p.
  60-day survivors (mice survived/mice used): 4/4
  ILS: > 689.5%
Leukemia L-1210; 100 mg/kg/day i.p.
  60-day survivors (mice survived/mice used): 4/4
  ILS: > 689.5%
[1]; 200 mg/kg/day i.p., 5 days
  Toxic (number of mice died/number of mice used): 5/5
[1]
  Therapeutic index (MTD/MED): 64
[1]; [3]
  inhibition in vivo at 0.39 mg/kg: 6.2%
  inhibition in vivo at 0.78 mg/kg: 37.5%
  inhibition in vivo at 1.56 mg/kg: 100%
  inhibition in vivo at 25 mg/kg: 100%
[1]; [5]
  inhibition in vivo at 6.25 mg/kg: 100%
[1]; [6]
  inhibition in vivo at 100 mg/kg: 100%
[1]; [8]
  minimal effective dose: 1.56 mg/kg/day
[2]
  MTD at 168 h: 100 mg/kg/day

## COc1ccc(CN(C(=O)N(CCCl)N=O)C2O[C@H](CO)[C@@H](O[C@H]3O[C@H](CO)[C@@H](O)[C@H](O)[C@H]3O)[C@H](O)[C@H]2O)cc1 (stereo partly shown)
[1]
  therapeutic index (M.T.D./M.E.D.), times greater than that of GANU: about 8 times

## O=NN(CCCl)C(=O)N(Cc1cccs1)C1OC[C@H](O)[C@H](O)[C@H]1O (stereo partly drawn) [1-(2-chloroethyl)-1-nitroso-3-(thiophen-2-yl-methyl)-3-(L-arabinopyranosyl)urea]
Leukemia L-1210; 0.35 mg/kg i.p.
  increase in the average life span: about 30%

## O=NN(CCCl)C(=O)NC1CCCCC1 [CCNU, 1-(2-chloroethyl)-1-nitroso-3-cyclohexylurea, reference compound]
[1]; 3.12 mg/kg/day i.p., 5 days
  Inhibition ratio: 21.1%
[1]; 6.25 mg/kg/day i.p., 5 days
  Inhibition ratio: 33.3%
[1]; 12.5 mg/kg/day i.p., 5 days
  Inhibition ratio: 100%
[1]; 50 mg/kg/day i.p., 5 days
  Inhibition ratio: 100%
[1]; 100 mg/kg/day i.p., 5 days
  Toxic (number of mice died/number of mice used): 5/5
[1]
  Therapeutic index (MTD/MED): 4
[1]; max dose, 100% inhibition without death, doses of the table in mg/kg/day, 10080 min
  MTD (Maximum Tolerated Dose): 50

## O=NN(CCCl)C(=O)N(Cc1ccco1)C1O[C@H](CO)[C@@H](O)[C@H]1O (stereo partly drawn) [Compound 14, 1-(2-chloroethyl)-1-nitroso-3-furfuryl-3-(D-ribofuranosyl)urea]
[1]; 200 mg/kg/day i.p., 5 days
  Toxic (number of mice died/number of mice used): 5/5
[1]
  Therapeutic index (MTD/MED): 64
[1]; [3]
  inhibition in vivo at 0.39 mg/kg: 18.4%
  inhibition in vivo at 0.78 mg/kg: 30.6%
  inhibition in vivo at 1.56 mg/kg: 100%
  inhibition in vivo at 25 mg/kg: 100%
[1]; [5]
  inhibition in vivo at 6.25 mg/kg: 100%
[1]; [6]
  inhibition in vivo at 100 mg/kg: 100%
[1]; [8]
  minimal effective dose: 1.56 mg/kg/day
[2]
  MTD at 168 h: 100 mg/kg/day

## O=NN(CCCl)C(=O)N(Cc1cccs1)C1O[C@H](CO)[C@@H](O[C@H]2O[C@H](CO)[C@@H](O)[C@H](O)[C@H]2O)[C@H](O)[C@H]1O (stereo partly drawn) [Compound 7, 1-(2-chloroethyl)-1-nitroso-3-(thiophen-2-yl-methyl)-3-[O-α-D-glucopyranosyl-(1→4)-D-glucopyranosyl]urea]
[1]; 800 mg/kg/day i.p., 5 days
  Toxic (number of mice died/number of mice used): 5/5
[1]
  Therapeutic index (MTD/MED): 256
[1]; [3]
  inhibition in vivo at 0.39 mg/kg: 6.2%
  inhibition in vivo at 0.78 mg/kg: 31.2%
  inhibition in vivo at 1.56 mg/kg: 100%
  inhibition in vivo at 25 mg/kg: 100%
[1]; [5]
  inhibition in vivo at 6.25 mg/kg: 100%
[1]; [6]
  inhibition in vivo at 100 mg/kg: 100%
[1]; [7]
  inhibition in vivo at 400 mg/kg: 100%
[1]; [8]
  minimal effective dose: 1.56 mg/kg/day
[2]
  MTD at 168 h: 400 mg/kg/day

## O=NN(CCCl)C(=O)N(CCc1ccccc1)C1O[C@H](CO)[C@@H](O[C@H]2O[C@H](CO)[C@@H](O)[C@H](O)[C@H]2O)[C@H](O)[C@H]1O (stereo partly drawn) [Compound 4, 1-(2-chloroethyl)-1-nitroso-3-phenethyl-3-[O-α-D-glucopyranosyl-(1→4)-D-glucopyranosyl]urea]
[1]; 400 mg/kg/day i.p., 5 days
  Toxic (number of mice died/number of mice used): 5/5
[1]
  Therapeutic index (MTD/MED): 64
[1]; [3]
  inhibition in vivo at 0.78 mg/kg: 2.6%
  inhibition in vivo at 1.56 mg/kg: 66.7%
[1]; [4]
  inhibition in vivo at 3.12 mg/kg: 100%
[1]; [9]
  inhibition in vivo at 12.5 mg/kg: 100%
[1]; [10]
  inhibition in vivo at 50 mg/kg: 100%
[1]; Mus musculus, Ehrlich, ip, 120 h, 200 mg/kg/day i.p., 5 days, read-out: Inhibition ratio
  inhibition in vivo at 200 mg/kg: 100%
[1]; [8]
  minimal effective dose: 3.12 mg/kg/day
[2]
  MTD at 168 h: 200 mg/kg/day

## O=NN(CCCl)C(=O)N(CC1CO1)C1OC[C@H](O)[C@H](O)[C@H]1O (stereo partly drawn) [1-(2-chloroethyl)-1-nitroso-3-(oxiran-2-yl-methyl)-3-(L-arabinopyranosyl)urea]
Leukemia L-1210; 1.05 mg/kg i.p.
  increase in the average life span: about 30%

## Cc1ccc(CN(C(=O)N(CCCl)N=O)C2O[C@H](CO)[C@@H](O[C@H]3O[C@H](CO)[C@@H](O)[C@H](O)[C@H]3O)[C@H](O)[C@H]2O)cc1 (stereo partly drawn) [Compound 2, 1-(2-chloroethyl)-1-nitroso-3-(p-methylbenzyl)-3-[O-α-D-glucopyranosyl-(1→4)-D-glucopyranosyl]urea]
[1]; 800 mg/kg/day i.p., 5 days
  Toxic (number of mice died/number of mice used): 5/5
[1]
  Therapeutic index (MTD/MED): 256
[1]; [3]
  inhibition in vivo at 0.39 mg/kg: 12.8%
  inhibition in vivo at 0.78 mg/kg: 74.4%
  inhibition in vivo at 1.56 mg/kg: 100%
  inhibition in vivo at 25 mg/kg: 100%
[1]; [5]
  inhibition in vivo at 6.25 mg/kg: 100%
[1]; [6]
  inhibition in vivo at 100 mg/kg: 100%
[1]; [7]
  inhibition in vivo at 400 mg/kg: 100%
[1]; [8]
  minimal effective dose: 1.56 mg/kg/day
[2]
  MTD at 168 h: 400 mg/kg/day
